PubChem BioAssay (NCI)
Where “and” joins values, the source holds several entries; their conditions need not be identical. Identical values can stand only once.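 Cultured in 96-well plates, cells were exposed to test compound for 48 hours across five concentrations. GI50 = concentration required for 50% inhibition of growth. Definition used: TGI = concentration required for complete inhibition of growth.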

Columns and labels:
Test in all cases: DTP human tumour cell line panel, 48 h
ACHN renal = test system: ACHN renal
BT-549 breast = test system: BT-549 breast
K-562 leukemia = test system: K-562 leukemia
MDA-MB-435 = test system: MDA-MB-435
MOLT-4 leukemia = test system: MOLT-4 leukemia
NCI-H522 lung = test system: NCI-H522 lung
NCI/ADR-RES ovarian = test system: NCI/ADR-RES ovarian
OVCAR-8 ovarian = test system: OVCAR-8 ovarian
SF-268 CNS = test system: SF-268 CNS
SF-539 CNS = test system: SF-539 CNS

Nc1ncnc2c1ncn2C1SC(CO)C(O)C1O (configuration not stated)
GI50 (ACHN renal): 31.8 µM | TGI (ACHN renal): > 100 µM | GI50 (BT-549 breast): 12.7 µM | TGI (BT-549 breast): 43.2 µM | GI50 (K-562 leukemia): 16.9 µM | TGI (K-562 leukemia): > 100 µM | GI50 (MDA-MB-435): 18.1 µM | TGI (MDA-MB-435): 50.2 µM | GI50 (MOLT-4 leukemia): > 100 µM | TGI (MOLT-4 leukemia): > 100 µM | GI50 (NCI-H522 lung): 40 µM | TGI (NCI-H522 lung): > 100 µM | GI50 (NCI/ADR-RES ovarian): 13.5 µM | TGI (NCI/ADR-RES ovarian): 52.1 µM | GI50 (OVCAR-8 ovarian): 4 µM | TGI (OVCAR-8 ovarian): 23.6 µM | GI50 (SF-268 CNS): 27.1 µM | TGI (SF-268 CNS): 96.6 µM | GI50 (SF-539 CNS): 19.7 µM | TGI (SF-539 CNS): 50.1 µM

COc1cc2nc(NC3CCC3)nc(NC3CCN(C(C)C)CC3)c2cc1OC
GI50 (ACHN renal): 2.7 µM | TGI (ACHN renal): 7.4 µM | GI50 (BT-549 breast): 1.71 µM | TGI (BT-549 breast): 3.7 µM | GI50 (K-562 leukemia): 0.902 µM | TGI (K-562 leukemia): 10.2 µM | GI50 (MDA-MB-435): 1.77 µM | TGI (MDA-MB-435): 3.33 µM | GI50 (MOLT-4 leukemia): 2.83 µM | TGI (MOLT-4 leukemia): 8.48 µM | GI50 (NCI-H522 lung): 1.96 µM | TGI (NCI-H522 lung): 4.52 µM | GI50 (NCI/ADR-RES ovarian): 15.6 µM | TGI (NCI/ADR-RES ovarian): 65 µM | GI50 (OVCAR-8 ovarian): 3.97 µM | TGI (OVCAR-8 ovarian): 26.2 µM | GI50 (SF-268 CNS): 2.5 µM | TGI (SF-268 CNS): 8.88 µM | GI50 (SF-539 CNS): 1.81 µM | TGI (SF-539 CNS): 3.36 µM

Cc1ccc(CNc2ccc(Cl)cc2NCc2ccc(C)c(O)c2)cc1O
GI50 (ACHN renal): 6.19 µM | TGI (ACHN renal): 12.6 µM | GI50 (BT-549 breast): 6.96 µM | TGI (BT-549 breast): 14.1 µM | GI50 (K-562 leukemia): 5.98 µM | TGI (K-562 leukemia): 18 µM | GI50 (MDA-MB-435): 6.7 µM | TGI (MDA-MB-435): 13.1 µM | GI50 (MOLT-4 leukemia): 3.34 µM | TGI (MOLT-4 leukemia): 14.7 µM | GI50 (NCI-H522 lung): 6.59 µM | TGI (NCI-H522 lung): 13.9 µM | GI50 (NCI/ADR-RES ovarian): 8.3 µM | TGI (NCI/ADR-RES ovarian): 17.8 µM | GI50 (OVCAR-8 ovarian): 8.66 µM | TGI (OVCAR-8 ovarian): 18.4 µM | GI50 (SF-268 CNS): 7 µM | TGI (SF-268 CNS): 14.2 µM | GI50 (SF-539 CNS): 7.31 µM | TGI (SF-539 CNS): 14.4 µM

CC[C@@]12CC(C(=O)OC)=C3Nc4ccccc4[C@@]34CCN(C[C@H]3O[C@H]31)[C@@H]24
GI50 (ACHN renal): > 100 µM | TGI (ACHN renal): > 100 µM | GI50 (BT-549 breast): 43.5 µM | TGI (BT-549 breast): > 100 µM | GI50 (K-562 leukemia): 23.2 µM | TGI (K-562 leukemia): > 100 µM | GI50 (MDA-MB-435): 16.2 µM | TGI (MDA-MB-435): 44.1 µM | GI50 (MOLT-4 leukemia): 27.9 µM | TGI (MOLT-4 leukemia): > 100 µM | GI50 (NCI-H522 lung): 20.9 µM | TGI (NCI-H522 lung): > 100 µM | GI50 (NCI/ADR-RES ovarian): 31 µM | TGI (NCI/ADR-RES ovarian): > 100 µM | GI50 (OVCAR-8 ovarian): > 100 µM | TGI (OVCAR-8 ovarian): > 100 µM | GI50 (SF-268 CNS): > 100 µM | TGI (SF-268 CNS): > 100 µM | GI50 (SF-539 CNS): 61.2 µM | TGI (SF-539 CNS): > 100 µM

O=C(/C=C/c1ccccc1)c1ccccn1
TGI (ACHN renal): 28.9 µM and 31 µM | TGI (BT-549 breast): 37.4 µM and 52.4 µM | GI50 (K-562 leukemia): 4.36 µM and 21.6 µM | TGI (K-562 leukemia): 36.6 µM and > 100 µM | TGI (MDA-MB-435): 44.7 µM and 88.7 µM | TGI (MOLT-4 leukemia): 61.4 µM and 72.6 µM | TGI (NCI-H522 lung): 48.2 µM and 33.2 µM | TGI (NCI/ADR-RES ovarian): 54.5 µM and > 100 µM | TGI (OVCAR-8 ovarian): 34.6 µM and > 100 µM | GI50 (SF-268 CNS): 18.8 µM and 2.66 µM | TGI (SF-268 CNS): 49.8 µM and 43.9 µM | TGI (SF-539 CNS): 42.4 µM

CC1(C)CC[C@]2(C(=O)O)CC[C@]3(C)C(=CC[C@@H]4[C@@]5(C)C/C(=C/c6cccnc6)[C@H](O)C(C)(C)[C@@H]5CC[C@]43C)[C@@H]2C1
GI50 (ACHN renal): 6.11 µM | TGI (ACHN renal): > 100 µM | GI50 (BT-549 breast): 12.4 µM | TGI (BT-549 breast): > 100 µM | GI50 (K-562 leukemia): 3.1 µM | TGI (K-562 leukemia): > 100 µM | GI50 (MDA-MB-435): 15.2 µM | TGI (MDA-MB-435): > 100 µM | GI50 (MOLT-4 leukemia): 2.63 µM | TGI (MOLT-4 leukemia): 26 µM | GI50 (NCI-H522 lung): 8.97 µM | TGI (NCI-H522 lung): > 100 µM | GI50 (NCI/ADR-RES ovarian): 9.82 µM | TGI (NCI/ADR-RES ovarian): > 100 µM | GI50 (OVCAR-8 ovarian): 9.47 µM | TGI (OVCAR-8 ovarian): > 100 µM | GI50 (SF-268 CNS): 8.68 µM | TGI (SF-268 CNS): > 100 µM | GI50 (SF-539 CNS): 5.54 µM | TGI (SF-539 CNS): 24 µM
